Measured values: US12622881B2, “Water-soluble topical ophthalmic preparation containing lutein and production method thereof” (Omisan Farmaceutici S.R.L., priority 2021, dated 2026)

Assay: Preliminary tests: lutein added to an aqueous solution under stirring
Format: physicochemical
Details: even under strong and prolonged stirring
Source text: As noted, lutein, being a lipophilic molecule, is insoluble in water.

SMILES: CC1=C[C@H](O)CC(C)(C)C1/C=C/C(C)=C/C=C/C(C)=C/C=C/C=C(C)/C=C/C=C(C)/C=C/C1=C(C)C[C@@H](O)CC1(C)C (stereo partly drawn) [lutein, β, ε-caroten-3,3′-diol]
- behaviour of lutein in aqueous solution (solubility): for the most part deposits rapidly on the bottom
